From patent publication US8952024B2, “Herbicidal pyrimidone derivatives” (E I du Pont de Nemours and Company, priority 2009, dated 2015)

Tests used:
Assay type in all cases: in vivo
corn (Zea mays) = assay: Test A pre-/postemergence plant response
Outline: (§1)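 Pre: directed soil spray on seeded loam/sand blend. Post: same formulation (non-phytotoxic solvent + surfactant) on 2–10 cm plants, 1–2 leaf stage. Greenhouse ~10 d; visual injury score 0–100 vs untreated.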

[1] = tested on: velvetleaf (Abutilon theophrasti); assay: Test A pre-/postemergence plant response
Outline: as §1

[2] = tested on: barnyardgrass (Echinochloa crus-galli); assay: Test A pre-/postemergence plant response
Outline: as §1

[3] = tested on: large crabgrass (Digitaria sanguinalis); assay: Test A pre-/postemergence plant response
Outline: as §1

[4] = tested on: wheat (Triticum aestivum); assay: Test A pre-/postemergence plant response
Outline: as §1

[5] = tested on: morningglory (Ipomoea spp.); assay: Test A pre-/postemergence plant response
Outline: as §1

[6] = tested on: pigweed (Amaranthus retroflexus); assay: Test A pre-/postemergence plant response
Outline: as §1

[7] = tested on: giant foxtail (Setaria faberii); assay: Test A pre-/postemergence plant response
Outline: as §1

[8] = tested on: umbrella sedge (Cyperus difformis); assay: Test B flooded paddy test; conditions: for Plant response rating, Flood, Sedge, Umbrella: 250 g ai/ha, flooded paddy test, visual rating on 0 to 100 scale (0 no effect, 100 complete control) after 13 to 15 days; for Plant response rating, Sedge, Umbrella: Flood (flooded paddy test), 13 to 15 days
Outline: (§2)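 Greenhouse-held for 13 to 15 days, treated pots were compared visually with controls and scored 0–100 (0, no effect). Treatment had been made into paddy water kept at 3 cm above the soil, with plants at the 2-leaf stage.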

[9] = tested on: ducksalad (Heteranthera limosa); assay: Test B flooded paddy test; conditions: for Plant response rating, Flood, Ducksalad: 250 g ai/ha, flooded paddy test, visual rating on 0 to 100 scale (0 no effect, 100 complete control) after 13 to 15 days; for Plant response rating, Ducksalad: Flood (flooded paddy test), 13 to 15 days
Outline: as §2

[10] = tested on: barnyardgrass (Echinochloa crus-galli); assay: Test B flooded paddy test; conditions: for Plant response rating, Flood, Barnyardgrass: 250 g ai/ha, flooded paddy test, visual rating on 0 to 100 scale (0 no effect, 100 complete control) after 13 to 15 days; for Plant response rating, Barnyardgrass: Flood (flooded paddy test), 13 to 15 days
Outline: as §2

rice (Oryza sativa) = assay: Test B flooded paddy test; conditions: for Plant response rating, Flood, Rice: 250 g ai/ha, flooded paddy test, visual rating on 0 to 100 scale (0 no effect, 100 complete control) after 13 to 15 days; for Plant response rating, Rice: Flood (flooded paddy test), 13 to 15 days
Outline: as §2

[11] = Postemergence, 125 g ai/ha, 0 to 100 scale where 0 is no effect and 100 is complete control
[12] = Postemergence, 500 g ai/ha, 0 to 100 scale, 0 = no effect, 100 = complete control, approx. ten days
[13] = Preemergence, 125 g ai/ha, 0 to 100 scale, 0 = no effect, 100 = complete control
[14] = Preemergence, 500 g ai/ha, visual injury, 0 to 100 scale (0 no effect, 100 complete control), approx. ten days
[15] = 62 g ai/ha, scale of 0 to 100 where 0 is no effect and 100 is complete control
[16] = Postemergence, 500 g ai/ha, visual injury, 0 to 100 scale (0 no effect, 100 complete control), approx. ten days
[17] = Preemergence, 500 g ai/ha, 0 to 100 scale, 0 = no effect, 100 = complete control
[18] = 125 g ai/ha, scale 0 to 100, 0 is no effect, 100 is complete control
[19] = Flood, 31 g ai/ha, scale 0 to 100 (0 no effect, 100 complete control)

CCn1c(-c2cccc(C)c2)ncc(C(=O)C2=C(O)CCCC2=O)c1=O [Compound 115]
Plant response rating, Corn (corn (Zea mays); [11]): 0
Plant response rating, Corn (corn (Zea mays); [12]): 20
Plant response rating, Corn (corn (Zea mays); [13]): 0
Plant response rating, Corn (corn (Zea mays); [14]): 0
Plant response rating, Velvetleaf [1, 11]: 100
Plant response rating, Velvetleaf [1, 12]: 100
Plant response rating, Velvetleaf [1, 13]: 60
Plant response rating, Velvetleaf [1, 14]: 90
Plant response rating, Barnyardgrass [2, 11]: 70
Plant response rating, Barnyardgrass [2, 12]: 90
Plant response rating, Barnyardgrass [2, 13]: 0
Plant response rating, Barnyardgrass [2, 14]: 80
Plant response rating, Crabgrass, Large [3, 11]: 60
Plant response rating, Crabgrass, Large [3, 12]: 90
Plant response rating, Crabgrass, Large [3, 13]: 20
Plant response rating, Crabgrass, Large [3, 14]: 80
Plant response rating, Wheat [4, 11]: 0
Plant response rating, Wheat [4, 12]: 0
Plant response rating, Wheat [4, 13]: 0
Plant response rating, Wheat [4, 14]: 0
Plant response rating, Morningglory [5, 11]: 90
Plant response rating, Morningglory [5, 12]: 100
Plant response rating, Morningglory [5, 13]: 60
Plant response rating, Morningglory [5, 14]: 80
Plant response rating, Pigweed [6, 11]: 100
Plant response rating, Pigweed [6, 12]: 100
Plant response rating, Pigweed [6, 13]: 70
Plant response rating, Pigweed [6, 14]: 100
Plant response rating, Foxtail, Giant [7, 11]: 50
Plant response rating, Foxtail, Giant [7, 12]: 80
Plant response rating, Foxtail, Giant [7, 13]: 20
Plant response rating, Foxtail, Giant [7, 14]: 70
Plant response rating, Flood, Sedge, Umbrella [8]: 90
Plant response rating, Sedge, Umbrella [8, 15]: 70
Plant response rating, Flood, Ducksalad [9]: 85
Plant response rating, Ducksalad [9, 15]: 85
Plant response rating, Flood, Barnyardgrass [10]: 65
Plant response rating, Barnyardgrass [10, 15]: 50
Plant response rating, Flood, Rice (rice (Oryza sativa)): 20
Plant response rating, Rice (rice (Oryza sativa); [15]): 20

Cc1cccc(-c2ncc(C(=O)C3=C(O)CCCC3=O)c(=O)n2C2CCCCC2)c1 [Compound 185]
Plant response rating, Corn (corn (Zea mays); [11]): 0
Corn plant response rating (corn (Zea mays); [16]): 50
Plant response rating, Corn (corn (Zea mays); [13]): 0
Plant response rating, Corn (corn (Zea mays); [17]): 0
Plant response rating, Velvetleaf [1, 11]: 90
Velvetleaf plant response rating [1, 16]: 100
Plant response rating, Velvetleaf [1, 13]: 0
Plant response rating, Velvetleaf [1, 17]: 50
Plant response rating, Barnyardgrass [2, 11]: 70
Barnyardgrass plant response rating [2, 16]: 90
Plant response rating, Barnyardgrass [2, 13]: 0
Plant response rating, Barnyardgrass [2, 17]: 50
Plant response rating, Crabgrass, Large [3, 11]: 50
Crabgrass, Large plant response rating [3, 16]: 70
Plant response rating, Crabgrass, Large [3, 13]: 0
Plant response rating, Crabgrass, Large [3, 17]: 30
Plant response rating, Wheat [4, 11]: 0
Wheat plant response rating [4, 16]: 0
Plant response rating, Wheat [4, 13]: 0
Plant response rating, Wheat [4, 17]: 0
Plant response rating, Morningglory [5, 11]: 100
Morningglory plant response rating [5, 16]: 100
Plant response rating, Morningglory [5, 17]: 30
Plant response rating, Pigweed [6, 11]: 90
Pigweed plant response rating [6, 16]: 100
Plant response rating, Pigweed [6, 13]: 0
Plant response rating, Pigweed [6, 17]: 70
Plant response rating, Foxtail, Giant [7, 11]: 50
Foxtail, Giant plant response rating [7, 16]: 80
Plant response rating, Foxtail, Giant [7, 13]: 0
Plant response rating, Foxtail, Giant [7, 17]: 50
Plant response rating, Flood, Sedge, Umbrella [8]: 60
Plant response rating, Sedge, Umbrella [8, 15]: 75
Plant response rating, Sedge, Umbrella [8, 18]: 65
Sedge, Umbrella plant response rating [8, 19]: 65
Plant response rating, Flood, Ducksalad [9]: 75
Plant response rating, Ducksalad [9, 15]: 70
Plant response rating, Ducksalad [9, 18]: 75
Ducksalad plant response rating [9, 19]: 75
Plant response rating, Flood, Barnyardgrass [10]: 0
Plant response rating, Barnyardgrass [10, 15]: 0
Plant response rating, Barnyardgrass [10, 18]: 0
Barnyardgrass plant response rating [10, 19]: 0
Plant response rating, Flood, Rice (rice (Oryza sativa)): 0
Plant response rating, Rice (rice (Oryza sativa); [15]): 0
Plant response rating, Rice (rice (Oryza sativa); [18]): 0
Rice plant response rating (rice (Oryza sativa); [19]): 0
